Data from patent US20230021483A1, “[…] […] METHOD AND CLASSIFICATION OF PHARMACEUTICAL COMPONENTS BY USING TRANSCRIPTOMES” (National Institutes of Biomedical Innovation, Health and …, priority 2016, published 2023).

Experiments:
[1] = tested on: preferentially upregulated genes in LV, SP, LN; assay: Z-score-based differential gene expression analysis (adjuvant group- or adjuvant-associated genes, 40 module mapping, TargetMine annotation); format: in vivo, C57BL/6 mice; settings: for Ddx58 1456890_at (Group G1, Modules 20) / Eif2ak2 1422005_at (Group G1, Modules 20) / G3bp2 1421323_a_at (Group G1, Modules 20) / Gm9706///Isg15 1431591_s_at (Group G1, Modules 20) / H2-T10///H2-T22///H2-T9 1449875_s_at (Group G1, Modules 20) / Ifih1 1426276_at (Group G1, Modules 20) / Ifit1 1450783_at (Group G1, Modules 20) / Ifit3 1449025_at (Group G1, Modules 20) / Irf7 1417244_a_at (Group G1, Modules 20) / Irgm1 1418825_at (Group G1, Modules 20) / Mndal 1426906_at (Group G1, Modules 20) / Pml 1448757_at (Group G1, Modules 20) / Pml 1456103_at (Group G1, Modules 20) / Rnf213 1455500_at (Group G1, Modules 20) / Rsad2 1436058_at (Group G1, Modules 20) / Shisa5 1423986_a_at (Group G1, Modules 20) / Shisa5 1437503_a_at (Group G1, Modules 20) / Stat1 1450033_a_at (Group G1, Modules 20) / Stat1 1450034_at (Group G1, Modules 20) / Tdrd7 1426716_at (Group G1, Modules 20) / Tor1aip2 1418115_s_at (Group G1, Modules 20) / Tor1aip2 1418116_at (Group G1, Modules 20) / Tor1aip2 1435526_at (Group G1, Modules 20) / Trim12a 1437432_a_at (Group G1, Modules 20) / Uba7 1426970_a_at (Group G1, Modules 20) / Adar 1425405_a_at (Group G1, Modules 20) / Adar 1434268_at (Group G1, Modules 20) / Ddx58 1436562_at (Group G1, Modules 20): IP, LV
In short: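 Per-sample fold-change values converted to gene-wise z-scores within each organ's data set, then triplicate z-scores summed per adjuvant. Genes with summed score >3 taken as preferentially expressed; gene groups defined by combined per-adjuvant z-score thresholds (z>1 to z>3) specific to each organ.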

LV, SP and LNs = assay: Whole organ transcriptome across organs (adjuvant gene space): gene responses and adjuvant grouping; format: in vivo, C57BL/6 mice
[2] = liver (LV), gene group G1, module 20, individual mice x1-x3, route ID/IP/IN

K3: B class CpG ODN (ATCGACTCTCGAGCGTTCTC), TLR9 ligand (chemistry not given here)
Ddx58 1456890_at (Group G1, Modules 20) ([1]; sample x1): −0.4
Eif2ak2 1422005_at (Group G1, Modules 20) ([1]; sample x1): −0.6
G3bp2 1421323_a_at (Group G1, Modules 20) ([1]; sample x1): −0.6
Gm9706///Isg15 1431591_s_at (Group G1, Modules 20) ([1]; sample x1): −0.5
H2-T10///H2-T22///H2-T9 1449875_s_at (Group G1, Modules 20) ([1]; sample x1): −0.2
Ifih1 1426276_at (Group G1, Modules 20) ([1]; sample x1): −0.4
Ifit1 1450783_at (Group G1, Modules 20) ([1]; sample x1): −0.5
Ifit3 1449025_at (Group G1, Modules 20) ([1]; sample x1): −0.5
Irf7 1417244_a_at (Group G1, Modules 20) ([1]; sample x1): −0.5
Irgm1 1418825_at (Group G1, Modules 20) ([1]; sample x1): −0.5
Mndal 1426906_at (Group G1, Modules 20) ([1]; sample x1): −0.5
Pml 1448757_at (Group G1, Modules 20) ([1]; sample x1): −0.5
Pml 1456103_at (Group G1, Modules 20) ([1]; sample x1): −0.5
Rnf213 1455500_at (Group G1, Modules 20) ([1]; sample x1): −0.5
Rsad2 1436058_at (Group G1, Modules 20) ([1]; sample x1): −0.5
Shisa5 1423986_a_at (Group G1, Modules 20) ([1]; sample x1): −0.6
Shisa5 1437503_a_at (Group G1, Modules 20) ([1]; sample x1): −0.5
Stat1 1450033_a_at (Group G1, Modules 20) ([1]; sample x1): −0.6
Stat1 1450034_at (Group G1, Modules 20) ([1]; sample x1): −0.5
Tdrd7 1426716_at (Group G1, Modules 20) ([1]; sample x1): −0.2
Tor1aip2 1418115_s_at (Group G1, Modules 20) ([1]; sample x1): −0.5
Tor1aip2 1418116_at (Group G1, Modules 20) ([1]; sample x1): −0.4
Tor1aip2 1435526_at (Group G1, Modules 20) ([1]; sample x1): −0.3
Trim12a 1437432_a_at (Group G1, Modules 20) ([1]; sample x1): −0.5
Uba7 1426970_a_at (Group G1, Modules 20) ([1]; sample x1): −0.5
Adar 1425405_a_at (Group G1, Modules 20) ([1]; sample x2): −0.5
Adar 1434268_at (Group G1, Modules 20) ([1]; sample x2): −0.8
Ddx58 1436562_at (Group G1, Modules 20) ([1]; sample x2): −0.2
Ddx58 1456890_at (Group G1, Modules 20) ([1]; sample x2): −0.3
Eif2ak2 1422005_at (Group G1, Modules 20) ([1]; sample x2): −0.7
G3bp2 1421323_a_at (Group G1, Modules 20) ([1]; sample x2): −0.4
Gm9706///Isg15 1431591_s_at (Group G1, Modules 20) ([1]; sample x2): −0.5
H2-T10///H2-T22///H2-T9 1449875_s_at (Group G1, Modules 20) ([1]; sample x2): −0.2
Ifih1 1426276_at (Group G1, Modules 20) ([1]; sample x2): −0.3
Ifit1 1450783_at (Group G1, Modules 20) ([1]; sample x2): −0.5
Ifit3 1449025_at (Group G1, Modules 20) ([1]; sample x2): −0.5
Irf7 1417244_a_at (Group G1, Modules 20) ([1]; sample x2): −0.6
Irgm1 1418825_at (Group G1, Modules 20) ([1]; sample x2): −0.5
Mndal 1426906_at (Group G1, Modules 20) ([1]; sample x2): −0.4
Pml 1448757_at (Group G1, Modules 20) ([1]; sample x2): −0.3
Pml 1456103_at (Group G1, Modules 20) ([1]; sample x2): −0.3
Rnf213 1455500_at (Group G1, Modules 20) ([1]; sample x2): −0.4
Rsad2 1436058_at (Group G1, Modules 20) ([1]; sample x2): −0.5
Shisa5 1423986_a_at (Group G1, Modules 20) ([1]; sample x2): −0.5
Shisa5 1437503_a_at (Group G1, Modules 20) ([1]; sample x2): −0.4
Stat1 1450033_a_at (Group G1, Modules 20) ([1]; sample x2): −0.5
Stat1 1450034_at (Group G1, Modules 20) ([1]; sample x2): −0.6
Tdrd7 1426716_at (Group G1, Modules 20) ([1]; sample x2): −0.1
Tor1aip2 1418115_s_at (Group G1, Modules 20) ([1]; sample x2): −0.2
Tor1aip2 1418116_at (Group G1, Modules 20) ([1]; sample x2): −0
Tor1aip2 1435526_at (Group G1, Modules 20) ([1]; sample x2): −0.2
Trim12a 1437432_a_at (Group G1, Modules 20) ([1]; sample x2): −0.5
Uba7 1426970_a_at (Group G1, Modules 20) ([1]; sample x2): −0.4
Adar 1425405_a_at (Group G1, Modules 20) ([1]; sample x3): −0.2
Adar 1434268_at (Group G1, Modules 20) ([1]; sample x3): −0.8
Ddx58 1436562_at (Group G1, Modules 20) ([1]; sample x3): −0.4
Ddx58 1456890_at (Group G1, Modules 20) ([1]; sample x3): −0.4
Eif2ak2 1422005_at (Group G1, Modules 20) ([1]; sample x3): −0.5
G3bp2 1421323_a_at (Group G1, Modules 20) ([1]; sample x3): −0.4
Gm9706///Isg15 1431591_s_at (Group G1, Modules 20) ([1]; sample x3): −0.5
H2-T10///H2-T22///H2-T9 1449875_s_at (Group G1, Modules 20) ([1]; sample x3): −0.4
Ifih1 1426276_at (Group G1, Modules 20) ([1]; sample x3): −0.5
Ifit1 1450783_at (Group G1, Modules 20) ([1]; sample x3): −0.5
Ifit3 1449025_at (Group G1, Modules 20) ([1]; sample x3): −0.5
Irf7 1417244_a_at (Group G1, Modules 20) ([1]; sample x3): −0.5
Irgm1 1418825_at (Group G1, Modules 20) ([1]; sample x3): −0.6
Mndal 1426906_at (Group G1, Modules 20) ([1]; sample x3): −0.4
Pml 1448757_at (Group G1, Modules 20) ([1]; sample x3): −0.6
Pml 1456103_at (Group G1, Modules 20) ([1]; sample x3): −0.6
Rnf213 1455500_at (Group G1, Modules 20) ([1]; sample x3): −0.5
Rsad2 1436058_at (Group G1, Modules 20) ([1]; sample x3): −0.5
Shisa5 1423986_a_at (Group G1, Modules 20) ([1]; sample x3): −0.8
Shisa5 1437503_a_at (Group G1, Modules 20) ([1]; sample x3): −0.6
Stat1 1450033_a_at (Group G1, Modules 20) ([1]; sample x3): −0.5
Stat1 1450034_at (Group G1, Modules 20) ([1]; sample x3): −0.6
Tdrd7 1426716_at (Group G1, Modules 20) ([1]; sample x3): −0.3
Tor1aip2 1418115_s_at (Group G1, Modules 20) ([1]; sample x3): −0.2
Tor1aip2 1418116_at (Group G1, Modules 20) ([1]; sample x3): −0.2
Tor1aip2 1435526_at (Group G1, Modules 20) ([1]; sample x3): −0.5
Trim12a 1437432_a_at (Group G1, Modules 20) ([1]; sample x3): −0.5
Uba7 1426970_a_at (Group G1, Modules 20) ([1]; sample x3): −0.3
preferentially induced biological process relative to adjuvants targeting the same receptor ([1]; LN, z-scores and 40 module mapping): preferentially induced RNA biogenesis
Z score of gene expression, Adar (probe 1425405_a_at) [1, 2]: −0.5
Z score of gene expression, Adar (probe 1434268_at) [1, 2]: −0.1
Z score of gene expression, Ddx58 (probe 1436562_at) [1, 2]: −0.5
Z score of gene expression, Ddx58 (probe 1456890_at) [1, 2]: −0.6
Z score of gene expression, Eif2ak2 (probe 1422005_at) [1, 2]: −0.5
Z score of gene expression, G3bp2 (probe 1421323_a_at) [1, 2]: −0.5
Z score of gene expression, Gm9706///Isg15 (probe 1431591_s_at) [1, 2]: −0.5
Z score of gene expression, H2-T10///H2-T22///H2-T9 (probe 1449875_s_at) [1, 2]: −0.7
Z score of gene expression, Ifih1 (probe 1426276_at) [1, 2]: −0.5
Z score of gene expression, Ifit1 (probe 1449025_at) [1, 2]: −0.5
Z score of gene expression, Ifit1 (probe 1450783_at) [1, 2]: −0.5
Z score of gene expression, Irf7 (probe 1417244_a_at) [1, 2]: −0.4
Z score of gene expression, Irgm1 (probe 1418825_at) [1, 2]: −0.5
Z score of gene expression, Mndal (probe 1426906_at) [1, 2]: −0.5
Z score of gene expression, Pml (probe 1448757_at) [1, 2]: −0.5
Z score of gene expression, Pml (probe 1456103_at) [1, 2]: −0.6
Z score of gene expression, Rnf213 (probe 1455500_at) [1, 2]: −0.5
Z score of gene expression, Rsad2 (probe 1436058_at) [1, 2]: −0.5
Z score of gene expression, Shisa5 (probe 1423986_a_at) [1, 2]: −0.5
Z score of gene expression, Shisa5 (probe 1437503_a_at) [1, 2]: −0.5
Z score of gene expression, Stat1 (probe 1450033_a_at) [1, 2]: −0.5
Z score of gene expression, Stat1 (probe 1450034_at) [1, 2]: −0.5
Z score of gene expression, Tdrd7 (probe 1426716_at) [1, 2]: −0.6
Z score of gene expression, Tor1aip2 (probe 1418115_s_at) [1, 2]: −0.1
Z score of gene expression, Tor1aip2 (probe 1418116_at) [1, 2]: −0.1
Z score of gene expression, Tor1aip2 (probe 1435526_at) [1, 2]: −0.1
Z score of gene expression, Trim12a (probe 1437432_a_at) [1, 2]: −0.4
Z score of gene expression, Uba7 (probe 1426970_a_at) [1, 2]: −0.4
gene expression changes in LV and SP (LV, SP and LNs; 6 h, Table 15, route not given): relatively weaker responses
distribution/strength of gene responses between local LNs and systemic organs (LV, SP) (LV, SP and LNs; 6 h after i.d. (local) administration): acted on local LNs but not in the systemic remote organs
adjuvant group (cluster) within the adjuvant gene space (LV, SP and LNs; hierarchical clustering, LV, SP and/or LNs): G5
